Tests used:
Type in all cases: in vivo
kochia (Bassia scoparia) [1] = assay: Test A postemergence, kochia; conditions: Postemergence
Summary of the method: (§1)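 Compounds in non-phytotoxic solvent with surfactant. Soil: loam/sand. Preemergence via directed soil spray after seeding; postemergence on seedlings 2–10 cm, one- to two-leaf.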

[2] = tested on: ragweed (common ragweed, Ambrosia artemisiifolia); assay: Test A preemergence, ragweed; conditions: Preemergence; for Ragweed plant response rating: 125 g ai/ha, visual injury on 0 to 100 scale (0 no effect, 100 complete control), approximately 10 days; for Plant response rating, Ragweed: 0 to 100 scale (0 no effect, 100 complete control)
Summary of the method: as §1

[3] = tested on: ragweed (common ragweed, Ambrosia artemisiifolia); assay: Test A postemergence, ragweed; conditions: Postemergence
Summary of the method: as §1

[4] = tested on: Ryegrass, Italian (Italian ryegrass, Lolium multiflorum); assay: Test A preemergence, Ryegrass, Italian; conditions: Preemergence; for Ryegrass, Italian plant response rating: 125 g ai/ha, visual injury on 0 to 100 scale (0 no effect, 100 complete control), approximately 10 days; for Plant response rating, Ryegrass, Italian: 0 to 100 scale (0 no effect, 100 complete control)
Summary of the method: as §1

[5] = tested on: pigweed (Amaranthus retroflexus); assay: Test A postemergence, pigweed; conditions: Postemergence
Summary of the method: as §1

[6] = tested on: galium (catchweed bedstraw, Galium aparine); assay: Test A postemergence, galium; conditions: Postemergence
Summary of the method: (§2)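 Directed soil spray at planting gave the preemergence treatment, while foliar application to one- to two-leaf seedlings (2–10 cm) gave the postemergence one; pots held a loam and sand mixture and chemicals were carried in a non-phytotoxic solvent with surfactant.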

corn (Zea mays) = assay: Test A postemergence, corn; conditions: Postemergence
Summary of the method: as §1

[7] = tested on: Foxtail, Giant (giant foxtail, Setaria faberi); assay: Test A preemergence, Foxtail, Giant; conditions: Preemergence; for Foxtail, Giant plant response rating: 125 g ai/ha, visual injury on 0 to 100 scale (0 no effect, 100 complete control), approximately 10 days; for Plant response rating, Foxtail, Giant: 0 to 100 scale (0 no effect, 100 complete control)
Summary of the method: as §1

[8] = tested on: blackgrass (Alopecurus myosuroides); assay: Test A postemergence, blackgrass; conditions: Postemergence, 0 to 100 scale (0 no effect, 100 complete control)
Summary of the method: as §1

[9] = tested on: barnyardgrass (Echinochloa crus-galli); assay: Test A postemergence, barnyardgrass; conditions: Postemergence, 0 to 100 scale (0 no effect, 100 complete control)
Summary of the method: as §2

[10] = tested on: Ryegrass, Italian (Italian ryegrass, Lolium multiflorum); assay: Test A postemergence, Ryegrass, Italian; conditions: Postemergence
Summary of the method: as §1

kochia (Bassia scoparia) [11] = assay: Test A preemergence, kochia; conditions: Preemergence; for Kochia plant response rating: 125 g ai/ha, visual injury on 0 to 100 scale (0 no effect, 100 complete control), approximately 10 days; for Plant response rating, Kochia: 0 to 100 scale (0 no effect, 100 complete control)
Summary of the method: as §1

[12] = tested on: wheat (Triticum aestivum); assay: Test A postemergence, wheat; conditions: Postemergence
Summary of the method: as §2

[13] = tested on: barnyardgrass (Echinochloa crus-galli); assay: Test A preemergence, barnyardgrass; conditions: Preemergence; for Barnyardgrass plant response rating: 125 g ai/ha, visual injury on 0 to 100 scale (0 no effect, 100 complete control), approximately 10 days; for Plant response rating, Barnyardgrass: 0 to 100 scale (0 no effect, 100 complete control)
Summary of the method: as §1

[14] = tested on: Foxtail, Giant (giant foxtail, Setaria faberi); assay: Test A postemergence, Foxtail, Giant; conditions: Postemergence
Summary of the method: as §1

[15] = tested on: pigweed (Amaranthus retroflexus); assay: Test A preemergence, pigweed; conditions: for Pigweed plant response rating: 125 g ai/ha, visual injury on 0 to 100 scale (0 no effect, 100 complete control), approximately 10 days; for Plant response rating, Pigweed: 0 to 100 scale (0 no effect, 100 complete control)
Summary of the method: as §2

[16] = 125 g ai/ha, 0 to 100 scale (0 no effect, 100 complete control)
[17] = 500 g ai/ha, visual injury vs untreated controls after approx. 10 days, 0 to 100 scale (0 no effect, 100 complete control)
[18] = 500 g ai/ha, visual injury vs untreated controls after approx. 10 days
[19] = 31 g ai/ha, visual injury on 0 to 100 scale (0 no effect, 100 complete control), approx. 10 days
[20] = 125 g ai/ha, visual injury approx. 10 days, 0 to 100 scale (0 no effect, 100 complete control)
[21] = 31 g ai/ha, visual injury, approx. 10 days
[22] = 125 g ai/ha, visual injury approx. 10 days
[23] = 1000 g ai/ha, visual injury, 0 to 100 scale (0 no effect, 100 complete control), approx. 10 days
[24] = 1000 g ai/ha, visual injury, approx. 10 days

Compound: Cc1cc(C)c(N(S(=O)(=O)C(F)(F)F)S(=O)(=O)C(F)(F)F)cc1C1=NOC2(CCCCCC2)C1 [Compound 158]
- Plant response rating, Kochia (kochia (Bassia scoparia) [1]; [16]): 20
- Kochia plant response rating (kochia (Bassia scoparia) [1]; [17]): 30
- Ragweed plant response rating [2]: 30
- Plant response rating, Ragweed ([2]; 500 g ai/ha): 40
- Plant response rating, Ragweed [3, 16]: 10
- Ragweed plant response rating [3, 17]: 20
- Ryegrass, Italian plant response rating [4]: 30
- Plant response rating, Ryegrass, Italian ([4]; 500 g ai/ha): 100
- Plant response rating, Pigweed [5, 16]: 30
- Pigweed plant response rating [5, 17]: 80
- Plant response rating, Galium [6, 16]: 70
- Galium plant response rating [6, 17]: 90
- Plant response rating, Corn (corn (Zea mays); [16]): 0
- Corn plant response rating (corn (Zea mays); [17]): 20
- Foxtail, Giant plant response rating [7]: 90
- Plant response rating, Foxtail, Giant ([7]; 500 g ai/ha): 100
- Plant response rating, Blackgrass ([8]; 125 g ai/ha): 20
- Blackgrass plant response rating [8, 18]: 0
- Plant response rating, Barnyardgrass ([9]; 125 g ai/ha): 0
- Barnyardgrass plant response rating [9, 18]: 20
- Plant response rating, Ryegrass, Italian [10, 16]: 0
- Ryegrass, Italian plant response rating [10, 17]: 0
- Kochia plant response rating (kochia (Bassia scoparia) [11]): 70
- Plant response rating, Kochia (kochia (Bassia scoparia) [11]; 500 g ai/ha): 80
- Plant response rating, Wheat [12, 16]: 0
- Wheat plant response rating [12, 17]: 0
- Barnyardgrass plant response rating [13]: 30
- Plant response rating, Barnyardgrass ([13]; 500 g ai/ha): 100
- Plant response rating, Foxtail, Giant [14, 16]: 0
- Foxtail, Giant plant response rating [14, 17]: 20
- Pigweed plant response rating [15]: 50
- Plant response rating, Pigweed ([15]; 500 g ai/ha): 100

Compound: COC1CCCN(C(=O)c2cc(NS(=O)(=O)C(F)(F)F)c(C)cc2C)CC1 (centres unmarked) [Compound 137]
- Plant response rating, Kochia (kochia (Bassia scoparia) [1]; [19]): 0
- Plant response rating, Kochia (kochia (Bassia scoparia) [1]; [20]): 20
- Plant response rating, Ragweed [2, 21]: 20
- Ragweed plant response rating [2]: 60
- Plant response rating, Ragweed [3, 19]: 0
- Plant response rating, Ragweed [3, 16]: 10
- Plant response rating, Ryegrass, Italian [4, 21]: 60
- Ryegrass, Italian plant response rating [4]: 100
- Plant response rating, Pigweed [5, 19]: 50
- Plant response rating, Pigweed [5, 16]: 30
- Plant response rating, Galium [6, 19]: 30
- Plant response rating, Galium [6, 20]: 80
- Plant response rating, Corn (corn (Zea mays); [19]): 30
- Plant response rating, Corn (corn (Zea mays); [20]): 30
- Plant response rating, Foxtail, Giant [7, 21]: 50
- Foxtail, Giant plant response rating [7]: 100
- Plant response rating, Blackgrass ([8]; 31 g ai/ha): 0
- Plant response rating, Blackgrass [8, 22]: 0
- Plant response rating, Barnyardgrass ([9]; 31 g ai/ha): 10
- Plant response rating, Barnyardgrass [9, 22]: 30
- Plant response rating, Ryegrass, Italian [10, 19]: 0
- Plant response rating, Ryegrass, Italian [10, 16]: 0
- Plant response rating, Kochia (kochia (Bassia scoparia) [11]; [21]): 30
- Kochia plant response rating (kochia (Bassia scoparia) [11]): 30
- Plant response rating, Wheat [12, 19]: 0
- Plant response rating, Wheat [12, 16]: 0
- Plant response rating, Barnyardgrass [13, 21]: 20
- Barnyardgrass plant response rating [13]: 100
- Plant response rating, Foxtail, Giant [14, 19]: 0
- Plant response rating, Foxtail, Giant [14, 20]: 0
- Plant response rating, Pigweed [15, 21]: 80
- Pigweed plant response rating [15]: 100

Compound: Cc1ccc(C(=O)N2CCC(C(C)(C)C)CC2)cc1NS(=O)(=O)C(F)(F)F [Compound 262]
- Plant response rating, Kochia (kochia (Bassia scoparia) [1]; [23]): 0
- Plant response rating, Ragweed ([2]; 1000 g ai/ha): 0
- Plant response rating, Ragweed [3, 23]: 0
- Plant response rating, Ryegrass, Italian ([4]; 1000 g ai/ha): 20
- Plant response rating, Pigweed [5, 23]: 20
- Plant response rating, Galium [6, 23]: 40
- Plant response rating, Corn (corn (Zea mays); [23]): 0
- Plant response rating, Foxtail, Giant ([7]; 1000 g ai/ha): 70
- Plant response rating, Blackgrass [8, 24]: 20
- Plant response rating, Barnyardgrass [9, 24]: 0
- Plant response rating, Ryegrass, Italian [10, 23]: 20
- Plant response rating, Kochia (kochia (Bassia scoparia) [11]; 1000 g ai/ha): 0
- Plant response rating, Wheat [12, 23]: 0
- Plant response rating, Barnyardgrass ([13]; 1000 g ai/ha): 20
- Plant response rating, Foxtail, Giant [14, 23]: 0
- Plant response rating, Pigweed ([15]; 1000 g ai/ha): 0

— US20230278972A1, “SUBSTITUTED HALOALKYL SULFONANILIDE HERBICIDES” (FMC Corporation, priority 2020, published 2023)
